Laboratory results: patent publication US7205433B2, “Crystal of amino acid ester salt and process for producing the same” (Ajinomoto Co., Inc., priority 2002, dated 2007)

What was measured:
Format in all cases: physicochemical
[1] = Comparative Example 9: crystals left standing at room temperature; conditions: left standing at room temperature for a while
Description: The crystals were separated and dried to give L-alanine methyl ester benzenesulfonate (L-Ala-OMe BsOH salt) crystals. The crystals were left standing at room temperature for a while.

[2] = Experimental Example 5: comparison of hygroscopicity by weight gain over time (60 to 66% RH); conditions: 24 EC
Procedure: The L-Ala-OMe HCl salt, L-Ala-OEt MsOH salt, L-Ala-OEt BsOH salt, L-Ala-OEt 4-CBS salt, L-Ala-OEt 4-EBS salt, L-Ala-OEt 2,4-DMBS salt, and L-Ala-OEt 2,5-DMBS salt were measured in an amount of about 0.3 g each, left standing in a thermostatic chamber at a temperature of 24 EC and a humidity of 60 to 66% RH, and the hygroscopicity was compared based on the weight gain with the lapse of time.

[3] = Experimental Example 2: comparison of hygroscopicity by weight gain over time (62 to 64% RH); conditions: 24° C.
Procedure: In the same manner as in Experimental Example 1, L-Ala-OEt MsOH salt and L-Ala-OMe HCl salt were measured into a glass container in an amount of 0.6 g each, left under conditions of temperature: 24° C., humidity: 62 to 64% RH, and then the hygroscopicity was compared based on the weight gain with the lapse of time.

[4] = Experimental Example 1: comparison of hygroscopicity by weight gain over time (44 to 45% RH); conditions: 22 to 24° C.
Procedure: L-Ala-OEt HCl salt and L-Ala-OEt MsOH salt were measured into in a glass container in an amount of 1.6 g each, dried in vacuo at 30° C. for 5 hours, left under conditions of temperature: 22 to 24° C., humidity: 44 to 45% RH, and then the hygroscopicity was compared based on the weight gain over the lapse of time. […] The liquefied portion increased with the lapse of time, and the entire salt became liquid 750 minutes later with no observable crystal.

[5] = Experimental Example 4: comparison of hygroscopicity by weight gain over time (40 to 46% RH); conditions: 24° C.
Procedure: The L-Ala-OEt HCl salt, L-Ala-OEt MsOH salt, L-Ala-OEt BsOH salt, L-Ala-OEt 4-CBS salt, L-Ala-OEt 4-EBS salt, L-Ala-OEt 2,4-DMBS salt, and L-Ala-OEt 2,5-DMBS salt were measured in an amount of about 0.3 g each, left standing in a thermostatic chamber at a temperature of 24° C. and a humidity of 40 to 46% RH, and the hygroscopicity was compared based on the weight gain with the lapse of time. A part of the crystal of the L-Ala-OEt HCl salt was liquefied in 30 minutes, and the liquefied portion increased thereafter with the lapse of time. After 100 minutes, the whole mass became like a sherbet.

COC(=O)[C@H](C)N.O=S(=O)(O)c1ccccc1 [L-Ala-OMe BsOH salt, L-alanine methyl ester benzenesulfonate]
stability of the crystals [1]: the crystals were liquefied and failed to provide stable crystals

CCOC(=O)[C@H](C)N.CS(=O)(=O)O [L-Ala-OEt MsOH salt, L-alanine ethyl ester methanesulfonate]
weight increase rate (%) ([2]; 0 minutes): 0.00%
weight increase rate (%) ([2]; 10 minutes): 0.32%
weight increase rate (%) ([2]; 20 minutes): 0.35%
weight increase rate (%) ([2]; 35 minutes): 0.38%
weight increase rate (%) ([2]; 50 minutes): 0.38%
weight increase rate (%) ([2]; 65 minutes): 0.41%
weight increase rate (%) ([2]; 80 minutes): 0.44%
weight increase rate (%) ([2]; 95 minutes): 0.44%
weight increase rate (%) ([2]; 110 minutes): 0.48%
weight increase rate (%) ([2]; 125 minutes): 0.44%
weight increase rate (%) ([2]; 140 minutes): 0.48%
weight increase rate (%) ([2]; 155 minutes): 0.48%
weight increase rate (%) ([2]; 170 minutes): 0.51%
weight increase rate (%) ([2]; 185 minutes): 0.48%
weight increase rate (%) ([2]; 200 minutes): 0.51%
weight increase rate (% relative to initial weight) ([3]; 0 minutes): 0.00%
weight increase rate (% relative to initial weight) ([3]; 10 minutes): 0.18%
weight increase rate (% relative to initial weight) ([3]; 20 minutes): 0.26%
weight increase rate (% relative to initial weight) ([3]; 35 minutes): 0.39%
weight increase rate (% relative to initial weight) ([3]; 50 minutes): 0.53%
weight increase rate (% relative to initial weight) ([3]; 65 minutes): 0.55%
weight increase rate (% relative to initial weight) ([3]; 80 minutes): 0.63%
weight increase rate (% relative to initial weight) ([3]; 95 minutes): 0.70%
weight increase rate (% relative to initial weight) ([3]; 110 minutes): 0.78%
weight increase rate (% relative to initial weight) ([3]; 125 minutes): 0.94%
weight increase rate (% relative to initial weight) ([3]; 140 minutes): 1.01%
weight increase rate (% relative to initial weight) ([3]; 155 minutes): 1.00%
weight increase rate (% relative to initial weight) ([3]; 170 minutes): 1.13%
weight increase rate (% relative to initial weight) ([3]; 185 minutes): 1.26%
weight increase rate (% relative to initial weight) ([3]; 200 minutes): 1.32%
change in weight with the lapse of time ([3]; up to 200 minutes): not much change in weight
liquefaction ([3]; up to 200 minutes): liquefaction was not observed
weight increase rate (% relative to initial weight) ([4]; 0 minutes): 0.00%
weight increase rate (% relative to initial weight) ([4]; 1 minutes): 0.08%
weight increase rate (% relative to initial weight) ([4]; 2 minutes): 0.11%
weight increase rate (% relative to initial weight) ([4]; 3 minutes): 0.17%
weight increase rate (% relative to initial weight) ([4]; 4 minutes): 0.17%
weight increase rate (% relative to initial weight) ([4]; 6 minutes): 0.23%
weight increase rate (% relative to initial weight) ([4]; 10 minutes): 0.36%
weight increase rate (% relative to initial weight) ([4]; 15 minutes): 0.41%
weight increase rate (% relative to initial weight) ([4]; 25 minutes): 0.48%
weight increase rate (% relative to initial weight) ([4]; 35 minutes): 0.56%
weight increase rate (% relative to initial weight) ([4]; 50 minutes): 0.58%
weight increase rate (% relative to initial weight) ([4]; 60 minutes): 0.59%
weight increase rate (% relative to initial weight) ([4]; 75 minutes): 0.63%
weight increase rate (% relative to initial weight) ([4]; 90 minutes): 0.57%
weight increase rate (% relative to initial weight) ([4]; 120 minutes): 0.58%
weight increase rate (% relative to initial weight) ([4]; 150 minutes): 0.58%
weight increase rate (% relative to initial weight) ([4]; 180 minutes): 0.61%
weight increase rate (% relative to initial weight) ([4]; 750 minutes): 1.16%
change in weight with the lapse of time ([4]; up to 750 minutes): almost no change in weight
liquefaction ([4]; up to 750 minutes): liquefaction was not observed
weight increase rate (%) ([5]; 0 minutes): 0.00%
weight increase rate (%) ([5]; 15 minutes): 0.03%
weight increase rate (%) ([5]; 30 minutes): 0.03%
weight increase rate (%) ([5]; 45 minutes): 0.00%
weight increase rate (%) ([5]; 60 minutes): 0.19%
weight increase rate (%) ([5]; 75 minutes): 0.35%
weight increase rate (%) ([5]; 90 minutes): 0.35%
weight increase rate (%) ([5]; 120 minutes): 0.42%
weight increase rate (%) ([5]; 150 minutes): 0.39%
weight increase rate (%) ([5]; 180 minutes): 0.55%
